From PMC8580996, “2-Oxoglutarate derivatives can selectively enhance or inhibit the activity of human oxygenases” (Nature Communications, 2021)
Where “and” joins values, the source holds several entries; their conditions need not be identical. Equal values may be shown once.

Target: FIH (Homo sapiens, UniProt Q9NWT6)
Assay: FIH steady-state kinetic parameters (SPE-MS, initial hydroxylation rates)
Type: biochemical
Parameters: slope of initial reaction rate: unit not given here
Summary of the method: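 FIH-catalysed CA1-20 peptide hydroxylation with varied 2OG or 2OG derivative, 20 μM ammonium iron(II) sulfate plus L-ascorbic acid, in 50 mM Tris, 50 mM NaCl, pH 7.5, 20 °C, monitored by SPE-MS (~1 sample/40 s). Initial rates fitted to Michaelis–Menten for vapp and Kapp; independent triplicates.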

Chain of FIH (Q9NWT6 whole entry): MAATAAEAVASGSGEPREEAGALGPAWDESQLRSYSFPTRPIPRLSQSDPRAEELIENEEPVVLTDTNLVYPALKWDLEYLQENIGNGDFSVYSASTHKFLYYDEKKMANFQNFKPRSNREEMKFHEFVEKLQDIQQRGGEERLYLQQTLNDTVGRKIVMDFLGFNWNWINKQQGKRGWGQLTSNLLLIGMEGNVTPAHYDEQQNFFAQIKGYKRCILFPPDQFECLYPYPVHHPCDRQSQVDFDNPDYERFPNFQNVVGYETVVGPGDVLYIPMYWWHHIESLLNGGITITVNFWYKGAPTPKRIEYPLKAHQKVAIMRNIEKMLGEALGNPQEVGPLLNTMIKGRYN

`CCC(CC(=O)C(=O)O)C(=O)O` (centres unmarked) [compound 14, 4-ethyl-2OG] was tested, and the “SPE-MS determined concentration of hydroxylated HIF-1a peptide” value (“SPE-MS determined concentration” for short) (0.5 uM compound 14, time 2.797 min) was 0.04266 µM and 0.0716 µM and 0.08092 µM, the “SPE-MS determined concentration” value (1 uM compound 14, time 2.797 min) was 0.09973 µM and 0.05746 µM and 0.08941 µM and the “SPE-MS determined concentration” value (1 uM compound 14, time 3.49667 min) was 0.115 µM and 0.07268 µM and 0.1031 µM. The “SPE-MS determined concentration” value (1 uM compound 14, time 4.19733 min) was 0.119 µM, the “SPE-MS determined concentration” value (2 uM compound 14, time 2.098 min) was 0.07647 µM and 0.1051 µM and 0.08874 µM and the “SPE-MS determined concentration” value (2 uM compound 14, time 2.797 min) was 0.08846 µM and 0.1193 µM and 0.1194 µM. For the same compound, the “SPE-MS determined concentration” value (2 uM compound 14, time 3.49667 min) was 0.1173 µM and 0.1355 µM and 0.125 µM, the “SPE-MS determined concentration” value (2 uM compound 14, time 4.19733 min) was 0.1246 µM and 0.1503 µM and 0.1494 µM and the “SPE-MS determined concentration” value (4 uM compound 14, time 0.699833 min) was 0.04117 µM and 0.06069 µM and 0.06774 µM. The “SPE-MS determined concentration” value (4 uM compound 14, time 2.098 min) was 0.09804 µM and 0.1128 µM and 0.1303 µM, the “SPE-MS determined concentration” value (4 uM compound 14, time 2.797 min) was 0.119 µM and 0.1335 µM and 0.1587 µM and the “SPE-MS determined concentration” value (4 uM compound 14, time 3.49667 min) was 0.1494 µM and 0.1576 µM and 0.1863 µM. The “SPE-MS determined concentration” value (4 uM compound 14, time 4.19733 min) was 0.1634 µM and 0.187 µM and 0.2105 µM, the “SPE-MS determined concentration” value (8 uM compound 14, time 0.699833 min) was 0.05237 µM and 0.05984 µM and 0.05853 µM and the “SPE-MS determined concentration” value (8 uM compound 14, time 2.098 min) was 0.1084 µM and 0.1284 µM and 0.1223 µM. The “SPE-MS determined concentration” value (8 uM compound 14, time 2.797 min) was 0.1357 µM and 0.1566 µM and 0.1624 µM, the “SPE-MS determined concentration” value (8 uM compound 14, time 3.49667 min) was 0.1592 µM and 0.1706 µM and 0.1851 µM and the “SPE-MS determined concentration” value (8 uM compound 14, time 4.19733 min) was 0.1873 µM and 0.2041 µM and 0.2053 µM. For the same compound, the “SPE-MS determined concentration” value (16 uM compound 14, time 0.699833 min) was 0.04301 µM and 0.07322 µM and 0.06274 µM, the “SPE-MS determined concentration” value (16 uM compound 14, time 2.098 min) was 0.1098 µM and 0.1258 µM and 0.1325 µM and the “SPE-MS determined concentration” value (16 uM compound 14, time 2.797 min) was 0.1413 µM and 0.1532 µM and 0.1654 µM. For the same compound, the “SPE-MS determined concentration” value (16 uM compound 14, time 3.49667 min) was 0.1747 µM and 0.1882 µM and 0.2002 µM, the “SPE-MS determined concentration” value (16 uM compound 14, time 4.19733 min) was 0.1989 µM and 0.216 µM and 0.231 µM and the “SPE-MS determined concentration” value (32 uM compound 14, time 0.699833 min) was 0.0551 µM and 0.06691 µM and 0.07521 µM. The “SPE-MS determined concentration” value (32 uM compound 14, time 2.098 min) was 0.1143 µM and 0.1231 µM and 0.1358 µM, the “SPE-MS determined concentration” value (32 uM compound 14, time 2.797 min) was 0.1568 µM and 0.1531 µM and 0.1667 µM and the “SPE-MS determined concentration” value (32 uM compound 14, time 3.49667 min) was 0.1879 µM and 0.1751 µM and 0.1995 µM. The “SPE-MS determined concentration” value (32 uM compound 14, time 4.19733 min) was 0.214 µM and 0.2049 µM and 0.2308 µM, the “slope of initial reaction rate” value (CA1-20, 1 μM 14) was 0.002761 and 0.002095 and 0.002277 and the “slope of initial reaction rate” value (CA1-20, 2 μM 14) was 0.00488 and 0.004776 and 0.004739. For the same compound, the “slope of initial reaction rate” value (CA1-20, 4 μM 14) was 0.007334 and 0.006606 and 0.007233, the “slope of initial reaction rate” value (CA1-20, 8 μM 14) was 0.009175 and 0.0109 and 0.00922 and the “slope of initial reaction rate” value (CA1-20, 16 μM 14) was 0.01109 and 0.0126 and 0.01075. The “slope of initial reaction rate” value (CA1-20, 32 μM 14) was 0.01017 and 0.00931 and 0.01176, the “slope of initial reaction rate” value (HIF-1a788-822, 0.5 μM 14) was 0.000241 and 0.000243 and 0.000366 and the “slope of initial reaction rate” value (HIF-1a788-822, 1 μM 14) was 0.000319 and 0.00043 and 0.000499. The “slope of initial reaction rate” value (HIF-1a788-822, 2 μM 14) was 0.000549 and 0.000605 and 0.000685, the “slope of initial reaction rate” value (HIF-1a788-822, 4 μM 14) was 0.000653 and 0.000643 and 0.000856 and the “slope of initial reaction rate” value (HIF-1a788-822, 8 μM 14) was 0.000767 and 0.000839 and 0.000864. For the same compound, the “slope of initial reaction rate” value (HIF-1a788-822, 16 μM 14) was 0.00082 and 0.000767 and 0.000893 and the “slope of initial reaction rate” value (HIF-1a788-822, 32 μM 14) was 0.000874 and 0.000847 and 0.00081.
